{"source": "paper PMC9229563", "about": "“Pharmacokinetics and the Dermal Absorption of Bromochlorophene, a Cosmetic Preservative Ingredient, in Rats” (Toxics, 2022)", "key": {"[1]": {"test_system": "estrogen receptor α", "set-up": "method as in PMID 33064576", "settings": "in silico and in vitro studies; cited from earlier work"}, "[2]": {"test_system": "thyroid receptor α", "set-up": "method as in PMID 33064576", "settings": "in silico and in vitro studies; cited from earlier work"}, "[3]": {"test_system": "gram-positive bacteria", "set-up": "method as in Table S1", "settings": "ref Table S1; cited from earlier work"}, "[4]": {"experiment": "Dermal pharmacokinetics / in vivo dermal absorption in rats", "set-up": "species or system rat", "protocol": "Blood samples (approximately 0.2 mL) were taken periodically by cannulated right jugular vein at 15 and 30 min, and 1, 2, 4, 8, 12, 24, 36, and 48 h post-dose. […] To analyze the in vivo (dermal and i.v. application) samples, 50 µL of the plasma was used, and extraction and analysis methods were the same as in vitro samples. […] The slope of the last phase (λz) is the individual estimate of the terminal elimination rate constant, which is calculated using log-linear regression of the terminal portions of the plasma concentration–time curves. The area under the plasma concentration–time curve from time zero to the last observation time point (AUCall) was calculated using the trapezoidal rule, and the AUC to infinity time (AUCinf) was obtained by adding Cn/λz to the AUCall (Cn: last concentration of chemical). Systemic clearance (CL) was calculated as dose/AUC. The apparent volume of the distribution (Vd) during the terminal phase was calculated as CL/λz. The peak plasma concentration (Cmax) and time to reach Cmax (Tmax) were determined directly from these observations. […] The plasma concentration–time data were analyzed using a non-compartmental WinNonlin model (version 2.1, Pharsight, NC, USA) to acquire i.v. and dermal pharmacokinetic parameters."}, "[5]": {"settings": "cited from earlier work"}, "[6]": {"test_system": "gram-negative bacteria", "set-up": "method as in Table S1", "settings": "ref Table S1; cited from earlier work"}, "[7]": {"experiment": "Stability of BCP in receptor fluid (6% POE20)", "assay_type": "physicochemical", "settings": "0.5 mg/mL, 48 h, 32 °C, sink conditions, n = 3", "procedure": "The in vitro dermal absorption study followed the guidelines of the Korea Ministry of Food and Drug Safety [15] with a Franz diffusion cell system consisting of a vision Microette auto-sampler, stirring drive, circulating water bath, stirring control, and autofill (Hanson, Chatsworth, CA, USA). The volume of the receptor fluid chamber was 12 mL and the temperature of the receptor fluid was maintained in a circulating water bath at 32 °C. […] The skin, after hydrating with normal saline for 5 min, was then placed between the donor and receptor compartments of the diffusion cells. […] Each formulation (~200 mg) was applied to 1.77 cm^2 of the donor chamber."}, "[8]": {"set-up": "method as in PMID 34335256", "settings": "female rats, oral, 28 days, 500 and 1000 mg/kg; cited from earlier work"}, "[9]": {"test_system": "androgen receptor", "set-up": "method as in PMID 33064576", "settings": "in silico and in vitro studies; cited from earlier work"}, "[10]": {"experiment": "Intravenous pharmacokinetics in rats", "assay_type": "in vivo", "settings": "rat; for half-life / AUC / AUC(0-inf) / clearance / Cmax / Vd: plasma, iv, n = 3; for half-life: glycerol formal, read-out: T1/2, terminal elimination half-life (converted); for clearance: read-out: CL, systemic clearance (converted); for Cmax: read-out: Cmax, peak plasma concentration; for Vd: read-out: Vd, volume of distribution", "protocol": "Blood samples (>0.2 mL) for plasma were collected by cannulated right jugular vein at 1, 2, 5, 10, and 30 min, and 1, 2, 4, 6, 12, 24, 36, and 48 h post-dose. Plasma samples were harvested by centrifugation at 13,000 rpm for 10 min and stored at −20 °C until analysis.\nTo analyze the in vivo (dermal and i.v. application) samples, 50 µL of the plasma was used, and extraction and analysis methods were the same as in vitro samples.\nIn the in vivo study, the terminal elimination half-life (T1/2) was calculated to be 0.693/λz. The slope of the last phase (λz) is the individual estimate of the terminal elimination rate constant, which is calculated using log-linear regression of the terminal portions of the plasma concentration–time curves. The area under the plasma concentration–time curve from time zero to the last observation time point (AUCall) was calculated using the trapezoidal rule, and the AUC to infinity time (AUCinf) was obtained by adding Cn/λz to the AUCall (Cn: last concentration of chemical). Systemic clearance (CL) was calculated as dose/AUC. The apparent volume of the distribution (Vd) during the terminal phase was calculated as CL/λz. The peak plasma concentration (Cmax) and time to reach Cmax (Tmax) were determined directly from these observations. The relative bioavailability (F) after dermal application was calculated as F (%) = 100 (Doseiv·AUCdermal)/(Dosedermal·AUCiv).\nThe plasma concentration–time data were analyzed using a non-compartmental WinNonlin model (version 2.1, Pharsight, NC, USA) to acquire i.v. and dermal pharmacokinetic parameters."}, "[11]": {"set-up": "method as in PMID 34335256", "settings": "hydrogel formulation, 0.262 mg/kg rat dorsal application; cited from earlier work"}, "[12]": {"test_system": "glucocorticoid receptor", "set-up": "method as in PMID 33064576", "settings": "in silico and in vitro studies; cited from earlier work"}, "[13]": {"test_system": "thyroid receptor β", "set-up": "method as in PMID 33064576", "settings": "in silico and in vitro studies; cited from earlier work"}, "[14]": {"test_system": "yeasts / moulds", "set-up": "method as in Table S1", "settings": "ref Table S1; cited from earlier work"}, "[15]": {"set-up": "method as in Table S1", "settings": "ref Table S1; cited from earlier work"}}, "note": "Where two headings read alike, the source gives them in different places."}
{"smiles": "Oc1c(Br)cc(Cl)cc1Cc1cc(Cl)cc(Br)c1O", "note": "[BCP, 2,2'-Methylenbis (6-bromo-4-chlorophenol)]", "values": [{"measurement": "Action on estrogen receptor α", "setting": "[1]", "value": "antagonist"}, {"measurement": "Action on thyroid receptor α", "setting": "[2]", "value": "antagonist"}, {"measurement": "Effect of preservative, gram-positive bacteria", "setting": "[3]", "value": "good"}, {"measurement": "Representative (total) dermal absorption of BCP", "setting": "[4]; determined from the in vivo PK / dermal study in rats", "value": "12.20 ± 2.63", "unit": "%"}, {"measurement": "bioavailability", "setting": "[4]; rat, plasma, topical, 234 mg/kg formulation, read-out: F, dermal bioavailability", "value": "12.2 ± 2.63", "unit": "%"}, {"measurement": "LogPow", "setting": "[5]; ref Table S1", "value": 6.12}, {"measurement": "Effect of preservative, gram-negative bacteria", "setting": "[6]", "value": "moderate"}, {"measurement": "Stability in 6% POE20", "setting": "[7]", "value": "stable"}, {"measurement": "Hematological and histopathological characteristics", "setting": "[8]", "value": "altered"}, {"measurement": "Action on androgen receptor", "setting": "[9]", "value": "antagonist"}, {"measurement": "half-life", "setting": "[10]; i.v. 0.2 mg/kg", "value": "34.5 ± 5.87", "unit": "h"}, {"measurement": "AUC", "setting": "[10]; i.v. 0.2 mg/kg", "value": "4190 ± 320", "unit": "ng·h/mL"}, {"measurement": "AUC(0-inf)", "setting": "[10]; i.v. 0.2 mg/kg", "value": "5860 ± 767", "unit": "ng·h/mL"}, {"measurement": "clearance", "setting": "[10]; i.v. 0.2 mg/kg", "value": 0.576, "unit": "mL/min/kg"}, {"measurement": "Cmax", "setting": "[10]; i.v. 0.2 mg/kg", "value": "4190 ± 1690", "unit": "ng/mL"}, {"measurement": "Vd", "setting": "[10]; i.v. 0.2 mg/kg", "value": "1.74 ± 0.072", "unit": "L/kg"}, {"measurement": "half-life", "setting": "[10]; i.v. 1 mg/kg", "value": "30.5 ± 1.83", "unit": "h"}, {"measurement": "AUC", "setting": "[10]; i.v. 1 mg/kg", "value": 30500, "unit": "ng·h/mL"}, {"measurement": "AUC(0-inf)", "setting": "[10]; i.v. 1 mg/kg", "value": 41600, "unit": "ng·h/mL"}, {"measurement": "clearance", "setting": "[10]; i.v. 1 mg/kg", "value": 0.401, "unit": "mL/min/kg"}, {"measurement": "Cmax", "setting": "[10]; i.v. 1 mg/kg", "value": 11400, "unit": "ng/mL"}, {"measurement": "Vd", "setting": "[10]; i.v. 1 mg/kg", "value": "1.06 ± 0.0502", "unit": "L/kg"}, {"measurement": "AUCs (AUCall and AUCinf) in plasma at 1 mg/kg versus 0.2 mg/kg", "setting": "[10]; i.v.", "value": "approximately 7 fold"}, {"measurement": "BCP absorption", "setting": "[11]", "value": "29.25 ± 6.09", "unit": "%"}, {"measurement": "Action on glucocorticoid receptor", "setting": "[12]", "value": "antagonist"}, {"measurement": "Action on thyroid receptor β", "setting": "[13]", "value": "antagonist"}, {"measurement": "Effect of preservative, yeasts / moulds", "setting": "[14]", "value": "inadequate"}, {"measurement": "Solubility in water", "setting": "[15]", "value": "< 5", "unit": "µg/mL"}]}
{"smiles": "COc1ccc(C(=O)c2ccccc2)c(O)c1", "note": "[benzophenone-3]", "values": [{"measurement": "LogPow", "setting": "[5]", "value": 3.58}]}
{"smiles": "CCCCC(CC)COC(=O)C=Cc1ccc(OC)cc1", "note": "(centres unmarked) [ethylhexyl methoxycinnamate]", "values": [{"measurement": "LogPow", "setting": "[5]", "value": 5.96}]}
{"smiles": "CC1CC(OC(=O)c2ccccc2O)CC(C)(C)C1", "note": "(centres unmarked) [homosalate]", "values": [{"measurement": "LogPow", "setting": "[5]", "value": 5.94}]}
{"smiles": "C[C@]12CC[C@H]3[C@@H](CCC4=CC(=O)CC[C@@]43C)[C@@H]1CC[C@@H]2O", "note": "[testosterone, reference compound]", "values": [{"measurement": "LogPow", "setting": "[5]", "value": 3.3}]}
